From article PMC3890260 (Chemical science (Royal Society of Chemistry : 2010), 2013)

Tests used:
[1] = target: T1, V. cholerae CqsS receptor (Vibrio cholerae serotype O1, UniProt Q9KM66); conditions: cited from earlier work
[2] = target: T1, V. cholerae CqsS receptor; experiment: CqsS agonist bioassay; type: cell-based

T1 sequence (Q9KM66 whole entry, looked up): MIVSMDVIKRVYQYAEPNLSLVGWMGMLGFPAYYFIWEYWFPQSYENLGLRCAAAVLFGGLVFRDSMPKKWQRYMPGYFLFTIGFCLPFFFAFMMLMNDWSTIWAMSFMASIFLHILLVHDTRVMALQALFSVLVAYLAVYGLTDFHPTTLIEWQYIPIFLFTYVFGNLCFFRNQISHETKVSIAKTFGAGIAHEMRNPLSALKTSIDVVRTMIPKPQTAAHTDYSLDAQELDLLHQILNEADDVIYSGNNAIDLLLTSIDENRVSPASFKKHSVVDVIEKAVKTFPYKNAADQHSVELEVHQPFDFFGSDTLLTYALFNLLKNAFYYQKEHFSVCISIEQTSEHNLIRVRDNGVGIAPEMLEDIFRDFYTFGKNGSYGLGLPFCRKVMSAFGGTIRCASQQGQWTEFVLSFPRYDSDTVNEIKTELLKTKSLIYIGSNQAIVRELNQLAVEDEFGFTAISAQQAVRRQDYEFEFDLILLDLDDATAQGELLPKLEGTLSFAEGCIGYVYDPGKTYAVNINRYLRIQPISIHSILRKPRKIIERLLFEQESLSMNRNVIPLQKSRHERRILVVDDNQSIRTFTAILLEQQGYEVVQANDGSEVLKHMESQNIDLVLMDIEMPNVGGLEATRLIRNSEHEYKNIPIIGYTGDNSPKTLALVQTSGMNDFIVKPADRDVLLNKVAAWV

SMILES: C/C=C(\N)C(=O)CCCCCCCCC [Ea-CAI-1]
- potency as CqsS agonist compared to CAI-1 [1]: an order of magnitude more potent
- EC50 ([2]; CqsS agonist bioassay, mean of triplicate analyses): 4.1 nM
- % Response (percent maximal bioluminescence with respect to Ea-CAI-1) ([2]; Ea-CAI-1 set at 100%): 100%
